Data from ChEMBL document CHEMBL1201862, “PubChem BioAssay data set” (2004).
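Each compound was tested at five concentrations against cells in 96-well plates for 48 hours. GI50 = concentration required for 50% inhibition of growth.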 Calls of active or inactive are those of the source. Rule as the data show it: active = GI50 up to about 1.1 µM and inactive = higher.

What was measured:
Assay in all cases: NCI tumour cell line growth inhibition, 48 h
[1] = system: SNB-19
[2] = system: U-251
[3] = system: HL-60
[4] = system: SF-295
[5] = system: RPMI-8226
[6] = system: DU-145
[7] = system: T47D
[8] = system: NCI/ADR-RES
[9] = system: CCRF-CEM
[10] = system: SK-MEL-2
[11] = system: MCF7
[12] = system: SF-539
[13] = system: MDA-MB-231
[14] = system: A498
[15] = system: UO-31
[16] = system: NCI-H460
[17] = system: CAKI-1
[18] = system: KM-20L2
[19] = system: MDA-MB-435
[20] = system: UACC-62

N#Cc1c(-c2ccc(Cl)cc2)c(-c2ccc(Cl)cc2)nn(CCOC(=O)CCC(=O)O)c1=O
GI50 [1]: 2650 nM (inactive) | GI50 [2]: 505 nM (active) | GI50 [3]: 339 nM (active) | GI50 [4]: 522 nM (active) | GI50 [5]: 760 nM (active) | GI50 [6]: 615 nM (active) | GI50 [7]: > 32300 nM (inactive) | GI50 [8]: 1320 nM (inactive) | GI50 [9]: 480 nM (active) | GI50 [10]: 221 nM (active) | GI50 [11]: 165 nM (active) | GI50 [12]: 421 nM (active) | GI50 [13]: 2650 nM (inactive) | GI50 [14]: 652 nM (active) | GI50 [15]: 1110 nM (active) | GI50 [16]: 807 nM (active) | GI50 [17]: 1830 nM (inactive) | GI50 [18]: 2280 nM (inactive) | GI50 [19]: 77.3 nM (active) | GI50 [20]: 260 nM (active)

COC1=C(OC)C(=O)c2cc(C)c(=O)c(C)cc2C1=O
GI50 [1]: 18400 nM (inactive) | GI50 [2]: 17200 nM (inactive) | GI50 [3]: 2820 nM (inactive) | GI50 [4]: 32600 nM (inactive) | GI50 [5]: 5690 nM (inactive) | GI50 [6]: 16900 nM (inactive) | GI50 [7]: 28600 nM (inactive) | GI50 [8]: 17000 nM (inactive) | GI50 [9]: 2450 nM (inactive) | GI50 [10]: 17300 nM (inactive) | GI50 [11]: 17900 nM (inactive) | GI50 [12]: 18200 nM (inactive) | GI50 [13]: 7940 nM (inactive) | GI50 [14]: 24200 nM (inactive) | GI50 [15]: 13800 nM (inactive) | GI50 [16]: 24700 nM (inactive) | GI50 [17]: 17300 nM (inactive) | GI50 [18]: 21100 nM (inactive) | GI50 [19]: 1800 nM (inactive) | GI50 [20]: 13400 nM (inactive)

CC1OC(=O)C(C(C)C)NC(=O)C(C(C)C)OC(=O)C(C(C)C)NC(=O)C(C)OC(=O)C(C(C)C)NC(=O)C(C(C)C)OC(=O)C(C(C)C)NC(=O)C(C)OC(=O)C(C(C)C)NC(=O)C(C(C)C)OC(=O)C(C(C)C)NC1=O (stereo not drawn)
GI50 [1]: 3.49 nM (active) | GI50 [2]: 2.5 nM (active) | GI50 [3]: 2.75 nM (active) | GI50 [5]: 2.5 nM (active) | GI50 [6]: 0.102 nM (active) | GI50 [7]: < 0.1 nM (active) | GI50 [8]: 7.28 nM (active) | GI50 [9]: 3.2 nM (active) | GI50 [10]: 2.88 nM (active) | GI50 [11]: 2.5 nM (active) | GI50 [12]: 3.33 nM (active) | GI50 [13]: < 0.1 nM (active) | GI50 [14]: 2.5 nM (active) | GI50 [15]: 2.81 nM (active) | GI50 [16]: 2.79 nM (active) | GI50 [17]: 2.88 nM (active) | GI50 [18]: 3.4 nM (active) | GI50 [19]: < 0.1 nM (active) | GI50 [20]: 2.5 nM (active)

O=S1(=O)NN=C(NCc2ccc(Cl)cc2)c2ccccc21
GI50 [1]: > 100000 nM (inactive) | GI50 [2]: 50400 nM (inactive) | GI50 [3]: > 100000 nM (inactive) | GI50 [4]: > 100000 nM (inactive) | GI50 [5]: 30600 nM (inactive) | GI50 [9]: 45200 nM (inactive) | GI50 [10]: > 100000 nM (inactive) | GI50 [12]: > 100000 nM (inactive) | GI50 [14]: > 100000 nM (inactive) | GI50 [15]: > 100000 nM (inactive) | GI50 [16]: > 100000 nM (inactive) | GI50 [17]: > 100000 nM (inactive) | GI50 [18]: > 100000 nM (inactive) | GI50 [20]: 83600 nM (inactive)

COc1cc(C2C3=C(COC3=O)Oc3cc4c(cc32)OCO4)cc(OC)c1OC (stereo not drawn)
GI50 [1]: 34 nM (active) | GI50 [2]: 26.2 nM (active) | GI50 [3]: 15.4 nM (active) | GI50 [4]: 10.9 nM (active) | GI50 [5]: 40.1 nM (active) | GI50 [6]: 25.6 nM (active) | GI50 [7]: > 10000 nM (inactive) | GI50 [8]: 18.5 nM (active) | GI50 [9]: 31.4 nM (active) | GI50 [10]: 39 nM (active) | GI50 [11]: 42.3 nM (active) | GI50 [12]: 21.8 nM (active) | GI50 [13]: 66.7 nM (active) | GI50 [14]: 4.88 nM (active) | GI50 [15]: 139 nM (active) | GI50 [16]: 21.6 nM (active) | GI50 [17]: 10 nM (active) | GI50 [18]: 13.9 nM (active) | GI50 [19]: 29.5 nM (active) | GI50 [20]: 16.6 nM (active)

C=CC1=CSNN1
GI50 [1]: > 100000 nM (inactive) | GI50 [2]: > 100000 nM (inactive) | GI50 [3]: > 100000 nM (inactive) | GI50 [4]: > 100000 nM (inactive) | GI50 [5]: > 100000 nM (inactive) | GI50 [9]: > 100000 nM (inactive) | GI50 [10]: > 100000 nM (inactive) | GI50 [12]: > 100000 nM (inactive) | GI50 [14]: > 100000 nM (inactive) | GI50 [15]: > 100000 nM (inactive) | GI50 [16]: > 100000 nM (inactive) | GI50 [17]: > 100000 nM (inactive) | GI50 [18]: > 100000 nM (inactive) | GI50 [20]: > 100000 nM (inactive)

C=C1CC2CC[C@@]34C[C@@H]5O[C@@H]6C(O[C@H]7CC[C@H](CC(=O)OC8[C@@H](C)C9OC%10C[C@]%11(C[C@@H]%12O[C@@]%13(C[C@@H](C)[C@@H]%12O%11)C[C@H](C)[C@@H]%11OC%12CC(C(O)CO)OC%12C[C@@H]%11O%13)OC%10CC9O[C@H]8C[C@H]8O[C@@H](CC[C@@H]1O2)C[C@@H](C)C8=C)O[C@@H]7[C@@H]6O3)C5O4 (stereo partly drawn)
GI50 [1]: 2.11 nM (active) | GI50 [2]: 1.03 nM (active) | GI50 [3]: 0.321 nM (active) | GI50 [4]: 0.453 nM (active) | GI50 [5]: 1.85 nM (active) | GI50 [8]: 4.71 nM (active) | GI50 [9]: 0.977 nM (active) | GI50 [10]: 1.25 nM (active) | GI50 [11]: 0.148 nM (active) | GI50 [12]: 0.933 nM (active) | GI50 [14]: 1.97 nM (active) | GI50 [15]: 6.73 nM (active) | GI50 [16]: 0.0826 nM (active) | GI50 [17]: 0.484 nM (active) | GI50 [18]: 0.428 nM (active) | GI50 [20]: 0.494 nM (active)
